This experiment deals with MV-4-11 cells. Kind of experiment: Gene expression microarray analysis (Affymetrix PrimeView) and GSEA. The note with it: MV-4-11 cells, 48 hours. Set-up: RFU PODN (11730768_x_at) / Fold change /veh PODN (11730768_x_at) / RFU LINC00158 (11744669_a_at) / Fold change /veh LINC00158 (11744669_a_at) / RFU DUSP10 (11751237_a_at) / Fold change /veh DUSP10 (11751237_a_at) / RFU ID3 (11757404_x_at) / Fold change /veh ID3 (11757404_x_at) / RFU PLEKHG5 (11737974_s_at) / Fold change /veh PLEKHG5 (11737974_s_at) / RFU LRRC4B (11730491_at) / Fold change /veh LRRC4B (11730491_at) / RFU GIMAP4 (11747438_a_at) / Fold change /veh GIMAP4 (11747438_a_at) / RFU KRT8 (11758183_x_at) / Fold change /veh KRT8 (11758183_x_at) / RFU CNN1 (11734310_a_at) / Fold change /veh CNN1 (11734310_a_at) / RFU VPS37D (11726825_at) / Fold change /veh VPS37D (11726825_at) / RFU C10orf10 (11716522_x_at) / Fold change /veh C10orf10 (11716522_x_at) / RFU KIR2DL2 /// KIR2DL4 /// KIR2DL5A /// KIR2DL5B /// KIR2DS1 /// KIR2DS2 /// KIR2DS3 /// KIR2DS4 /// KIR3DL3 /// KIR3DL3 /// KIR3DS1 (11738374_at) / Fold change /veh KIR2DL2 /// KIR2DL4 /// KIR2DL5A /// KIR2DL5B /// KIR2DS1 /// KIR2DS2 /// KIR2DS3 /// KIR2DS4 /// KIR3DL3 /// KIR3DL3 /// KIR3DS1 (11738374_at) / RFU C1QL1 (11718748_at) / Fold change /veh C1QL1 (11718748_at) / RFU TMPRSS4 (11747572_a_at) / Fold change /veh TMPRSS4 (11747572_a_at) / RFU HAMP (11756126_x_at) / Fold change /veh HAMP (11756126_x_at) / RFU RNFT2 (11725882_a_at) / Fold change /veh RNFT2 (11725882_a_at) / RFU NR4A2 (11747474_a_at) / Fold change /veh NR4A2 (11747474_a_at) / RFU ABCC12 (11746883_a_at) / Fold change /veh ABCC12 (11746883_a_at) / RFU TMEM136 (11760407_x_at) / Fold change /veh TMEM136 (11760407_x_at) / RFU CLDN22 /// WWC2 (11732394_at) / Fold change /veh CLDN22 /// WWC2 (11732394_at) / RFU HLA-DPB1 (11760878_x_at) / Fold change /veh HLA-DPB1 (11760878_x_at) / RFU SPINT1 (11716480_a_at) / Fold change /veh SPINT1 (11716480_a_at) / RFU GAP43 (11754022_s_at) / Fold change /veh GAP43 (11754022_s_at) / RFU A4GNT (11735810_at) / Fold change /veh A4GNT (11735810_at) / RFU PRB3 (11715151_x_at) / Fold change /veh PRB3 (11715151_x_at) / RFU TUBB4B (11761932_at) / Fold change /veh TUBB4B (11761932_at) / RFU CAPN14 (11732068_a_at) / Fold change /veh CAPN14 (11732068_a_at) / RFU TMCC2 (11721928_a_at) / Fold change /veh TMCC2 (11721928_a_at) / RFU IRGQ (11745062_a_at) / Fold change /veh IRGQ (11745062_a_at) / RFU FAM174B (11720279_a_at) / Fold change /veh FAM174B (11720279_a_at) / RFU TMPRSS4 (11748680_a_at) / Fold change /veh TMPRSS4 (11748680_a_at) / RFU FAM212B (11763350_a_at) / Fold change /veh FAM212B (11763350_a_at) / RFU PLEKHG5 (11743358_a_at) / Fold change /veh PLEKHG5 (11743358_a_at) / RFU ZSCAN30 (11745921_a_at) / Fold change /veh ZSCAN30 (11745921_a_at) / RFU CMKLR1 (11741424_a_at) / Fold change /veh CMKLR1 (11741424_a_at) / RFU LOC101060620 /// MAPK8IP1 (11723275_at) / Fold change /veh LOC101060620 /// MAPK8IP1 (11723275_at) / RFU SPTSSB (11747773_x_at) / Fold change /veh SPTSSB (11747773_x_at) / RFU PRSS12 (11739890_at) / Fold change /veh PRSS12 (11739890_at) / RFU BIN1 (11741810_x_at) / Fold change /veh BIN1 (11741810_x_at) / RFU WNT11 (11732464_a_at) / Fold change /veh WNT11 (11732464_a_at) / RFU C10orf10 (11716521_a_at) / Fold change /veh C10orf10 (11716521_a_at) / RFU C5orf56 (11738089_at) / Fold change /veh C5orf56 (11738089_at) / RFU CYB561 (11721691_x_at) / Fold change /veh CYB561 (11721691_x_at) / RFU ANKRD19P (11752326_a_at) / Fold change /veh ANKRD19P (11752326_a_at) / RFU OR2T12 /// OR2T33 /// OR2T8 (11738714_s_at) / Fold change /veh OR2T12 /// OR2T33 /// OR2T8 (11738714_s_at) / RFU VCAN (11748164_a_at) / Fold change /veh VCAN (11748164_a_at) / RFU JSRP1 (11732532_at) / Fold change /veh JSRP1 (11732532_at) / RFU KRTAP10-11 (11738290_x_at) / Fold change /veh KRTAP10-11 (11738290_x_at) / RFU MYO3A (11730013_a_at) / Fold change /veh MYO3A (11730013_a_at) / RFU EBF3 (11725865_a_at) / Fold change /veh EBF3 (11725865_a_at) / RFU CAMK2N1 (11719241_x_at) / Fold change /veh CAMK2N1 (11719241_x_at) / RFU C5orf56 (11738088_a_at) / Fold change /veh C5orf56 (11738088_a_at) / RFU OLFML3 (11715873_a_at) / Fold change /veh OLFML3 (11715873_a_at) / RFU LOC100653217 /// NTM (11731650_a_at) / Fold change /veh LOC100653217 /// NTM (11731650_a_at) / RFU MAPK11 (11762145_a_at) / Fold change /veh MAPK11 (11762145_a_at) / RFU FIZ1 (11724087_x_at) / Fold change /veh FIZ1 (11724087_x_at) / RFU OASL (11726364_x_at) / Fold change /veh OASL (11726364_x_at) / RFU SOX15 (11748057_x_at) / Fold change /veh SOX15 (11748057_x_at) / RFU CD79A (11719716_a_at) / Fold change /veh CD79A (11719716_a_at) / RFU HIST1H1D (11736915_at) / Fold change /veh HIST1H1D (11736915_at) / RFU CASKIN2 (11723855_a_at) / Fold change /veh CASKIN2 (11723855_a_at) / RFU LOC730098 (11760151_x_at) / Fold change /veh LOC730098 (11760151_x_at) / RFU OR4N2 (11742367_at) / Fold change /veh OR4N2 (11742367_at) / RFU PRRT2 (11749266_a_at) / Fold change /veh PRRT2 (11749266_a_at) / RFU SNX32 (11753110_a_at) / Fold change /veh SNX32 (11753110_a_at) / RFU CDHR5 (11726645_a_at) / Fold change /veh CDHR5 (11726645_a_at) / RFU RCAN1 (11760418_a_at) / Fold change /veh RCAN1 (11760418_a_at) / RFU FAM167A (11723789_a_at) / Fold change /veh FAM167A (11723789_a_at) / RFU FAM26E (11764081_at) / Fold change /veh FAM26E (11764081_at) / RFU ISYNA1 (11749810_s_at) / Fold change /veh ISYNA1 (11749810_s_at) / RFU ACY1 (11761880_at) / Fold change /veh ACY1 (11761880_at) / RFU 11764098_at / Fold change /veh 11764098_at / RFU SAMD14 (11745864_x_at) / Fold change /veh SAMD14 (11745864_x_at) / RFU NPB (11741838_a_at) / Fold change /veh NPB (11741838_a_at) / RFU TMPRSS6 (11731388_a_at) / Fold change /veh TMPRSS6 (11731388_a_at) / RFU KRTAP10-2 (11738614_at) / Fold change /veh KRTAP10-2 (11738614_at) / RFU ARHGAP8 /// PRR5-ARHGAP8 (11727945_x_at) / Fold change /veh ARHGAP8 /// PRR5-ARHGAP8 (11727945_x_at) / RFU KRTAP5-7 /// NADSYN1 (11734609_at) / Fold change /veh KRTAP5-7 /// NADSYN1 (11734609_at) / RFU RASL12 (11751679_a_at) / Fold change /veh RASL12 (11751679_a_at) / RFU CDKN2B (11736163_a_at) / Fold change /veh CDKN2B (11736163_a_at) / RFU PRF1 (11729649_at) / Fold change /veh PRF1 (11729649_at) / RFU, ZNF638 /// ZNF638-IT1 / Fold change vs veh, ZNF638 /// ZNF638-IT1 / RFU, PANK3 / Fold change vs veh, PANK3 / RFU, SH3YL1 / Fold change vs veh, SH3YL1 / RFU, ZEB2 / Fold change vs veh, ZEB2 / RFU, NRIP1 / Fold change vs veh, NRIP1 / RFU, PTTG1IP / Fold change vs veh, PTTG1IP / RFU, CAPN2 / Fold change vs veh, CAPN2 / RFU, MED14 / Fold change vs veh, MED14 / RFU, SNORA58 / Fold change vs veh, SNORA58 / RFU, C1orf63 / Fold change vs veh, C1orf63 / RFU, LRRFIP1 / Fold change vs veh, LRRFIP1 / RFU, NDUFAF7 / Fold change vs veh, NDUFAF7 / RFU, SLC12A2 / Fold change vs veh, SLC12A2 / RFU, IBTK / Fold change vs veh, IBTK / RFU, ESF1 / Fold change vs veh, ESF1 / Fold change vs veh, TMEM50B / RFU, TAOK1 / Fold change vs veh, TAOK1 / RFU, ACBD3 / Fold change vs veh, ACBD3 / RFU, TMA16 / Fold change vs veh, TMA16 / RFU, RWDD3 / Fold change vs veh, RWDD3 / RFU, BCAT1 / Fold change vs veh, BCAT1 / RFU, EDEM3 / Fold change vs veh, EDEM3 / RFU, TMEM33 / Fold change vs veh, TMEM33 / RFU, WDR75 / Fold change vs veh, WDR75 / RFU, AHCTF1 / Fold change vs veh, AHCTF1 / RFU, TFRC / Fold change vs veh, TFRC / RFU, ZDHHC17 / Fold change vs veh, ZDHHC17 / RFU, NOM1 / Fold change vs veh, NOM1 / RFU, ARL8B / Fold change vs veh, ARL8B / RFU, ZBTB11 / Fold change vs veh, ZBTB11 / RFU, TAMM41 / Fold change vs veh, TAMM41 / RFU, KIAA1704 /// LOC100996395 / Fold change vs veh, KIAA1704 /// LOC100996395 / RFU, ING1 / Fold change vs veh, ING1 / RFU, TRMT61B / Fold change vs veh, TRMT61B / RFU, FUBP3 / Fold change vs veh, FUBP3 / RFU, TP53 / Fold change vs veh, TP53 / RFU, TNKS2 / Fold change vs veh, TNKS2 / RFU, ZFP14 / Fold change vs veh, ZFP14 / RFU, ACTR2 / Fold change vs veh, ACTR2 / RFU, PPP3R1 / Fold change vs veh, PPP3R1 / RFU, PIK3R1 / Fold change vs veh, PIK3R1 / RFU, HNRNPA1 / Fold change vs veh, HNRNPA1 / RFU, RNF170 / Fold change vs veh, RNF170 / RFU, ZNF28 / Fold change vs veh, ZNF28 / RFU, RNGTT / Fold change vs veh, RNGTT / RFU, OGT / Fold change vs veh, OGT / RFU, BRD1 / Fold change vs veh, BRD1 / RFU, MARS / Fold change vs veh, MARS / RFU, ZNF655 / Fold change vs veh, ZNF655 / RFU, FAHD1 / Fold change vs veh, FAHD1 / RFU, BDP1 / Fold change vs veh, BDP1 / RFU, LRRCC1 / Fold change vs veh, LRRCC1 / RFU, ARID1A / Fold change vs veh, ARID1A / RFU, ZNF146 / Fold change vs veh, ZNF146 / RFU, ZNF330 / Fold change vs veh, ZNF330 / RFU, GPN3 / Fold change vs veh, GPN3 / RFU, C9orf123 / Fold change vs veh, C9orf123 / RFU, N4BP2L2 / Fold change vs veh, N4BP2L2 / RFU, ARFIP1 / Fold change vs veh, ARFIP1 / RFU, FAM179B / Fold change vs veh, FAM179B / RFU, BCL10 / Fold change vs veh, BCL10 / RFU, UHRF1BP1L / Fold change vs veh, UHRF1BP1L / RFU, BET1 / Fold change vs veh, BET1 / RFU, CNOT2 / Fold change vs veh, CNOT2 / RFU, ZNF268 / Fold change vs veh, ZNF268 / Fold change vs veh, ZNF507 / RFU, DGCR2 / Fold change vs veh, DGCR2 / RFU, WDSUB1 / Fold change vs veh, WDSUB1 / Fold change vs veh, HSP90B1 /// MIR3652 / RFU, ADSS / Fold change vs veh, ADSS / RFU, GK / Fold change vs veh, GK / RFU, ZNF148 / Fold change vs veh, ZNF148 / RFU, TAF9 / Fold change vs veh, TAF9 / RFU, SLC1A5 / Fold change vs veh, SLC1A5 / RFU, SLMO2 / Fold change vs veh, SLMO2 / RFU, ABCC4 / Fold change vs veh, ABCC4 / RFU, LOC101060439 /// RAP1B / Fold change vs veh, LOC101060439 /// RAP1B / RFU, RFX7 / Fold change vs veh, RFX7 / RFU, GTPBP10 / Fold change vs veh, GTPBP10 / RFU, CNEP1R1 / Fold change vs veh, CNEP1R1 / RFU, BIVM-ERCC5 /// ERCC5 / Fold change vs veh, BIVM-ERCC5 /// ERCC5 / RFU, ILF3 / Fold change vs veh, ILF3 / RFU 11762660_at / Fold change /veh 11762660_at / RFU VCAN (11757783_s_at) / Fold change /veh VCAN (11757783_s_at) / RFU DDX43 (11728927_at) / Fold change /veh DDX43 (11728927_at) / RFU KRT8 (11758188_x_at) / Fold change /veh KRT8 (11758188_x_at) / RFU NKD1 (11759106_at) / Fold change /veh NKD1 (11759106_at) / RFU SRD5A1 (11742802_a_at) / Fold change /veh SRD5A1 (11742802_a_at) / RFU TPSAB1 /// TPSB2 (11721975_s_at) / Fold change /veh TPSAB1 /// TPSB2 (11721975_s_at) / RFU GSTM3 (11746129_a_at) / Fold change /veh GSTM3 (11746129_a_at) / RFU IL23R (11737362_x_at) / Fold change /veh IL23R (11737362_x_at) / RFU TMEM51 (11727254_a_at) / Fold change /veh TMEM51 (11727254_a_at) / RFU PIWIL2 (11732686_x_at) / Fold change /veh PIWIL2 (11732686_x_at) / RFU ORM1 (11744905_x_at) / Fold change /veh ORM1 (11744905_x_at) / RFU CCDC152 (11743942_at) / Fold change /veh CCDC152 (11743942_at) / RFU ECM1 (11717891_a_at) / Fold change /veh ECM1 (11717891_a_at) / RFU IL23R (11748794_a_at) / Fold change /veh IL23R (11748794_a_at) / RFU TNFAIP8L3 (11732012_x_at) / Fold change /veh TNFAIP8L3 (11732012_x_at) / RFU MBOAT4 (11741988_at) / Fold change /veh MBOAT4 (11741988_at) / RFU 11764193_at / Fold change /veh 11764193_at / RFU TMEM53 (11763286_at) / Fold change /veh TMEM53 (11763286_at) / RFU MAGEB2 (11727129_at) / Fold change /veh MAGEB2 (11727129_at) / RFU TMEM200A (11744735_a_at) / Fold change /veh TMEM200A (11744735_a_at) / RFU CCDC152 (11751479_a_at) / Fold change /veh CCDC152 (11751479_a_at) / RFU FAM211A (11726209_a_at) / Fold change /veh FAM211A (11726209_a_at) / RFU RGS16 (11746705_a_at) / Fold change /veh RGS16 (11746705_a_at) / RFU VCAN (11755009_s_at) / Fold change /veh VCAN (11755009_s_at) / RFU RHOB (11743442_s_at) / Fold change /veh RHOB (11743442_s_at) / RFU RGS16 (11720943_a_at) / Fold change /veh RGS16 (11720943_a_at) / RFU RGS16 (11720944_at) / Fold change /veh RGS16 (11720944_at) / RFU, VPS4B / Fold change vs veh, VPS4B / RFU, CREB1 / Fold change vs veh, CREB1 / RFU, DNAJC13 / Fold change vs veh, DNAJC13 / RFU, GNAQ / Fold change vs veh, GNAQ / RFU, CDK5R1 / Fold change vs veh, CDK5R1 / RFU, ZRANB3 / Fold change vs veh, ZRANB3 / RFU, CUL4A / Fold change vs veh, CUL4A / RFU, CCNY / Fold change vs veh, CCNY / RFU, UFL1 / Fold change vs veh, UFL1 / RFU, COG3 / Fold change vs veh, COG3 / RFU, DIAPH2 / Fold change vs veh, DIAPH2 / RFU, SKA2 / Fold change vs veh, SKA2 / RFU, AFF3 / Fold change vs veh, AFF3 / RFU, LMF1 / Fold change vs veh, LMF1 / RFU, IPO11 / Fold change vs veh, IPO11 / RFU, DFFB / Fold change vs veh, DFFB / RFU, FOXP1 / Fold change vs veh, FOXP1 / RFU, CARD8 / Fold change vs veh, CARD8 / RFU, STRN3 / Fold change vs veh, STRN3 / RFU, ADK / Fold change vs veh, ADK / RFU, RASSF2 / Fold change vs veh, RASSF2 / RFU, WIPF1 / Fold change vs veh, WIPF1 / RFU, LARP1B / Fold change vs veh, LARP1B / RFU, RASA1 / Fold change vs veh, RASA1 / RFU, RB1 / Fold change vs veh, RB1 / RFU, PPFIA1 / Fold change vs veh, PPFIA1 / RFU, MAT2A / Fold change vs veh, MAT2A / RFU, CCT5 / Fold change vs veh, CCT5 / RFU, WDR92 / Fold change vs veh, WDR92 / RFU, CUX1 / Fold change vs veh, CUX1 / RFU, TTC7A / Fold change vs veh, TTC7A / RFU, TMEM135 / Fold change vs veh, TMEM135 / RFU, DEPTOR / Fold change vs veh, DEPTOR / RFU, CPM / Fold change vs veh, CPM / RFU, DNAJB6 / Fold change vs veh, DNAJB6 / RFU, CACNA2D3 / Fold change vs veh, CACNA2D3 / RFU, DTX4 / Fold change vs veh, DTX4 / RFU, TFCP2 / Fold change vs veh, TFCP2 / RFU, GMCL1 /// GMCL1P1 / Fold change vs veh, GMCL1 /// GMCL1P1 / RFU, AEBP2 / Fold change vs veh, AEBP2 / RFU, SNHG1 /// SNORD22 /// SNORD25 /// SNORD26 /// SNORD27 /// SNORD28 /// SNORD29 /// SNORD31 / Fold change vs veh, SNHG1 /// SNORD22 /// SNORD25 /// SNORD26 /// SNORD27 /// SNORD28 /// SNORD29 /// SNORD31 / Fold change (Aza/veh), C12orf56 (ProbeSet 11735607_a_at) / Fold change (ACY-1035/veh), C12orf56 (ProbeSet 11735607_a_at) / Fold change (Aza/veh), FGFR1OP (ProbeSet 11751329_s_at) / Fold change (ACY-1035/veh), FGFR1OP (ProbeSet 11751329_s_at) / Fold change (Aza/veh), VPS36 (ProbeSet 11739960_a_at) / Fold change (ACY-1035/veh), VPS36 (ProbeSet 11739960_a_at) / RFU SYPL1 (11715823_x_at) / Fold change /veh SYPL1 (11715823_x_at) / RFU IGFBP7 (11715501_s_at) / Fold change /veh IGFBP7 (11715501_s_at) / RFU REEP3 (11722064_at) / Fold change /veh REEP3 (11722064_at) / RFU IGLL1 (11728026_x_at) / Fold change /veh IGLL1 (11728026_x_at): dose or concentration left out as unconfirmed. The class given is cell-based, human.

The source of these data is article PMC5218480 (PLoS ONE, 2017).

For the compound `Nc1ncn([C@@H]2O[C@H](CO)[C@@H](O)[C@H]2O)c(=O)n1` [azacitidine], the “Fold change /veh GIMAP4 (11747438_a_at)” value is on record as 1.07.
